# Source: article PMC5059851, “Inhibition of Hedgehog-dependent tumors and cancer stem cells by a newly identified naturally occurring chemotype” (Cell Death & Disease, 2016)
# Target: T1, human Smo D473H (Homo sapiens, UniProt Q99835, D473H)
# T1 construct: Myc-DDK; expressed in transfected cells; host or cells: HEK293T
# Assay: Bodipy-Cyclopamine (BC) binding assay, HEK293T cells transfected with human Smo D473H
# Settings: resistant Smo mutants versus WT
# Method: Cells were washed in PBS supplemented with 0.5% fetal bovine serum, fixed in 4% paraformaldehyde in phosphate-buffered saline (PBS) for 10 min, and incubated for 2 h at 37 °C both in the same medium supplemented with Bodipy-Cyclopamine (5 nM) and the studied compounds. The cells were permeabilized with Triton X100 (Sigma) 0.2%. Dako Fluorescent mounting (Dako, Carpinteria, CA, USA) was used as mounting medium and Hoechst reagent for staining of the cell nuclei. Bodipy (green) and Hoechst (blue) signals were analyzed in three to four representative fields per coverslip (× 20 magnification, 1000 cells/field). Data were expressed as percentage of BC incorporation observed with BC alone.[95]
# T1 sequence (Q99835 28-787 D473H): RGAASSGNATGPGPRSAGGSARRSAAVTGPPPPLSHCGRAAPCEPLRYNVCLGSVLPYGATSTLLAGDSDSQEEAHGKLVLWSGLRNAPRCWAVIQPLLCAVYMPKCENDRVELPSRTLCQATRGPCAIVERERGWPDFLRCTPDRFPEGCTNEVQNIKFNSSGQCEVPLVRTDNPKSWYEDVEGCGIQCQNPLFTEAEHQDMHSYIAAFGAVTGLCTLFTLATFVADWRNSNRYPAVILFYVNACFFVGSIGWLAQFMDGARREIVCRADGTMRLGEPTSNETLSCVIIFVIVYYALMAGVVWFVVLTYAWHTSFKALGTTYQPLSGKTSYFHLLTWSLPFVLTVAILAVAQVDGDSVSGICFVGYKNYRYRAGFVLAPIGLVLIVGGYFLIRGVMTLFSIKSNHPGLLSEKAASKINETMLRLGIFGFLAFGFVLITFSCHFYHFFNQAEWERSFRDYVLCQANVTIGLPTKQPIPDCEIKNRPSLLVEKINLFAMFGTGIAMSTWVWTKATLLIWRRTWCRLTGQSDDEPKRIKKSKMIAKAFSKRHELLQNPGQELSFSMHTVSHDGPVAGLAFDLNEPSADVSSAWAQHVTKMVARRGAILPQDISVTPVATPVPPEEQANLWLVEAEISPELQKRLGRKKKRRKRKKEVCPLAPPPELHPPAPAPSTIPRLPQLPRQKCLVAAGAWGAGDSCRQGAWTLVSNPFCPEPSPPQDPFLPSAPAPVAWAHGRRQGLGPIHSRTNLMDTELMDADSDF
row,Compound,loss of affinity for the resistant Smo mutants in binding assay
1,"CS(=O)(=O)c1ccc(C(=O)Nc2ccc(Cl)c(-c3ccccn3)c2)c(Cl)c1 [Vismodegib, reference compound]",about 1000 fold

# Test system: Hh pathway (Gli-responsive firefly luciferase reporter)
# Assay: Hh-dependent Gli-luciferase reporter assay in SAG-treated NIH3T3 Shh-Light II cells
# Type: cell-based
# Settings: SAG (200 nM)-treated NIH3T3 Shh-Light II cells, 48 h, normalized to Renilla; N.A. = Not Active
# Method: The inhibitory properties of the potential Smo antagonists 1–17 were investigated in a luciferase reporter assay that is widely used for characterizing Hh inhibitors. NIH3T3 Shh-Light II cells, stably incorporating a Gli-responsive firefly luciferase reporter (Gli-RE),[25] were treated with the synthetic Smo agonist SAG[24] alone or in combination with the selected small molecules to evaluate their dose–response ability to suppress Hh pathway. […] We excluded the possibility that inhibition activity in this assay was mediated by cytotoxicity because no decrease was shown in the luciferase assay control Renilla as observed instead for 13–17.
# The luciferase assay was performed in Shh-Light II cells, stably incorporating a Gli-responsive luciferase reporter and the pRL-TK Renilla (normalization control), treated for 48 h with SAG (200 nM) and the studied compounds. Luciferase and Renilla activity were assayed with a dual-luciferase assay system according to the manufacturer's instruction (Biotium Inc., Hayward, CA, USA). Results are expressed as luciferase/Renilla ratios and represent the mean±S.D. of three experiments, each performed in triplicate.
row,Compound,IC50 [µM]
1,"CC1=C[C@@H]2c3c(O)cc(/C=C/c4ccc(O)cc4O)cc3OC3(c4ccc(O)c5c4OC(C)(C)C=C5)Oc4cc(O)ccc4[C@@H](C1)[C@H]23 (stereo partly drawn) [Compound 6, (3aS,13bS,13cR)-6-[(E)-2-(2,4-dihydroxyphenyl)vinyl]-8a-(5-hydroxy-2,2-dimethyl-2H-chromen-8-yl)-2-methyl-1,8a,13b,13c-tetrahydro-3aH-benzo[3,4]isochromeno[1,8-bc]chromene-4,11-diol]",30 ± 1.93
2,"COc1cc(OC)c2c(=O)c(-c3ccc4c(c3)OCO4)coc2c1 [Compound 9, 3-(1,3-benzodioxol-5-yl)-5,7-dimethoxy-4H-chromen-4-one]",24.1 ± 1.6
3,"COc1c(C2COc3cc(O)c(CC=C(C)C)c(O)c3C2=O)ccc(O)c1CC=C(C)C (stereo not shown) [Compound 11, 5,7-dihydroxy-3-[4-hydroxy-2-methoxy-3-(3-methyl-2-buten-1-yl)phenyl]-6-(3-methyl-2-buten-1-yl)-2,3-dihydro-4H-chromen-4-one]",22.6
4,"COc1ccc(C=CC(=O)c2c(OC)cc(OC)c(OC)c2OC)cc1OC [Compound 10, 3-(3,4-dimethoxy-phenyl)-1-(2,3,4,6-tetramethoxy-phenyl)-2-propen-1-one]",31.3 ± 2.29
5,"CC(C)=CCc1c(O)ccc(C(=O)[C@H]2[C@@H](c3c(O)cc(/C=C/c4ccc(O)cc4O)cc3O)C=C(C)C[C@@H]2c2ccc(O)cc2O)c1O [Compound 8, [2,4-dihydroxy-3-(3-methyl-2-buten-1-yl)phenyl][(1R,2S,6S)-6-(2,4-dihydroxyphenyl)-2-{4-[(E)-2-(2,4-dihydroxyphenyl)vinyl]-2,6-dihydroxyphenyl}-4-methyl-3-cyclohexen-1-yl]methanone]",27.5 ± 2.67
6,"3-benzo[1,3]dioxol-5-yl-1-(2,4,5-trimethoxy-phenyl)-propan-1-one [Compound 7]",38.5 ± 3.57
